# Where no end group is shown, it is not given here. The star is where a group is joined. Octanoyl = CCCCCCCC(=O)*
# What was measured:
# [1] = Percent body weight change after WBI; format: in vivo, rat; conditions: 10 Gy WBI rats; treatment starting at 24 h; 30 day period
# Method: (§1) Animal model of whole body irradiation. Rats were exposed to whole body irradiation (WBI) of 10 Gray (Gy) using a Gammacell® 1000 Irradiator (Atomic Energy of Canada Ltd) [radiation source: Cesium-137 (^137Cs)] delivered at a dose rate of about 2.5 GY/min. The animals were sedated with intra-peritoneal pentobarbital (40 mg/kg BW) prior to irradiation. During radiation, the container rotated continuously in front of the radiation source for even exposure. The animals were then returned to their cages, and food and water were provided.
# Survival study. To assess the survival benefits of human ghrelin, animals were exposed to 10 Gy WBI and treated with human ghrelin (20 nmol/rat) subcutaneously once a day, with the first dose given either at 24 h or 48 h after WBI, for 6 days and observed for 30 days, and the survival recorded. The surviving animals beyond 30 days were then euthanized. Rats in the survival study were monitored twice daily and weighed once a day during the 30 day survival period. Net weight change was calculated as: % Weight Change ((weight at each day−weight at day 0)/weight at day 0)×100.
# [2] = tested on: rat jejunum; experiment: Histopathology of jejunum after WBI (H&E, PAS); format: in vivo; conditions: Day 7 after 10 Gy WBI
# Method: as §1
# (§2) Blood and Tissue Collection after WBI. Rats exposed to 10 Gy WBI were treated with 20 nmol/rat human ghrelin once a day for 6 days starting at 24 h after radiation. At the 7th day, rats were euthanized, and blood, liver and the small intestine were removed under sterile conditions. The blood was allowed to clot and following centrifugation, the serum was transferred into pyrogenic free sterile tubes, and stored at −80° C. until further analysis. Liver (0.25 g) was snap-frozen in liquid nitrogen and stored at −80° C. for subsequent bacterial translocation analysis. Small intestine, 10-15 cm of the ileum, was harvested for gut permeability studies, 10 cm of jejunum was collected for histopathology, and the remaining 10 cm jejunal segment each was collected for RNA and protein analyses.
# Histopathology. Jejunal segments were fixed in 1:10 buffered formalin and embedded in paraffin. Tissue blocks were sectioned at a thickness of 5 μm, transferred to glass slides, and stained with hematoxylin and eosin (H&E). The sections were observed under 100× magnification using a Nikon Eclipse Ti inverted microscope equipped with the Nikon Digital Sight Camera (Nikon Inc. Melville, N.Y.). Villus height was determined by measuring the distance from villus-crypt junction to the villus tip and crypt depth was determined by the distance from villus-crypt junction to basal crypt cells using the Nikon software. For each rat, 100 measurements of villus height and crypt depth were obtained from 5 circumferences. Periodic Acid Schiff (PAS) stained sections were used to quantify the number of goblet cells per villus. Three rats in each group were used to calculate the mean.
# [3] = tested on: serum glucose; experiment: Serum glucose level after WBI; format: in vivo, rat; conditions: Day 7 after 10 Gy WBI; WBI reduced it by 30%
# Method: as §1
# as §2, with “Small intestine, 10-15 cm of the ileum, was harvested for gut permeability studies, 10 cm of jejunum was collected for histopathology, and the remaining 10 cm jejunal segment each was collected for RNA and protein analyses.” left out
# Serum glucose and albumin levels. Serum levels of glucose and albumin were determined using Liquid Glucose Hexokinase Reagent Set and Albumin Reagent Set (Pointe Scientific, Inc.) respectively according to manufacturer's instructions.
# [4] = tested on: intestinal crypt apoptosis; experiment: Intestinal TUNEL staining after WBI; format: in vivo, rat; conditions: jejunum, Day 7 after 10 Gy WBI; vehicle increased by 638% from sham
# Method: as §1
# Blood and Tissue Collection after WBI. Rats exposed to 10 Gy WBI were treated with 20 nmol/rat human ghrelin once a day for 6 days starting at 24 h after radiation. At the 7th day, rats were euthanized, and blood, liver and the small intestine were removed under sterile conditions. The blood was allowed to clot and following centrifugation, the serum was transferred into pyrogenic free sterile tubes, and stored at −80° C. until further analysis. […]
# TUNEL staining. The presence of apoptotic cells in the gut sections was assessed at the 7th day following WBI using a terminal deoxynucleotide transferase dUTP nick-end labeling (TUNEL) staining kit (Roche Diagnostics, Indianapolis, Ind.). […] TUNEL-positive cells in crypt were counted in 10 fields/section under a fluorescence microscope (200×), and the number of cells/crypt are shown.
substance,measurement,setting,value
ghrelin (GSS(Octanoyl)FLSPEHQRVQQRKESKKPPAKLQPR; listed as Homo sapiens) [human ghrelin],percent body weight change,[1],consistent increase in the body weight
same,intestinal integrity and morphology (H&E),[2]; 6 days treatment starting at 24 h,improved the intestinal integrity and morphology
same,"goblet cell number/villus, increase from Sham","[2]; jejunum PAS stain, vehicle 29%",5%
same,"crypt depth, reduction from Sham","[2]; jejunum, 20 nmol/rat for 6 days from 24 h, vehicle 14%",2.8%
same,"villus length, reduction from Sham","[2]; jejunum, 20 nmol/rat for 6 days from 24 h, vehicle 19%",2.0%
same,serum glucose,[3],restored to near Sham levels
same,"apoptotic (TUNEL positive) cells/crypt, reduction",[4],62%

# From US10265383B2, “Treatment of radiation injury using ghrelin” (priority 2014, dated 2019)
